Assay results as given in paper PMC5793121 (Toxins, 2018).
“And” between values parts separate entries of the source, which are not always exact repeats. Equal entries are not always repeated. No end group written: not given here.

Experiments:
[1] = system: GABAA (α1β3γ2 or α2β3γ2) receptors; conditions: concentration up to 100 μM; cited from earlier work
[2] = system: peritoneal macrophages of male ICR mice; format: in vivo, mouse; conditions: 7-day im 0.15 and 0.5 mg/kg
Protocol: (§1) For carrying out these experiments 90 male ICR mice were used, they were divided equally into three groups (30 animals per group) for each study and in these groups they were subdivided into subgroups of 10 mice each and treated as follows: mice of the first subgroup were injected with normal saline im, the second subgroup animals were treated with Az (0.15 mg/kg im) and the animals of the third subgroup were treated with Az (0.50 mg/kg im). The drugs were injected into the quadriceps muscle of the thigh (musculus quadriceps femoris) daily for seven days (1 mL/kg).
On the next day after the seven-day course of the Az administration, the mice of the third group (30 animals) were injected intraperitoneally with 2 mL of ink particles suspension. After 10 min the mice were euthanized (CO2 inhalation) with a subsequent isolation of the peritoneal exudate from their abdominal cavity. In the exudate (1 μL) the total number of peritoneal macrophages and the number of the ink particle-containing (phagocytic) cells among them were counted using a Gorjaev’s chamber.

male and female ICR mice = format: in vivo, mouse; conditions: 0.15 mg/kg subcutaneously, n = 10
Protocol: Allergenicity of Az was studied in a delayed-type hypersensitivity test on male (20 animals) and female (20 animals) adult ICR mice. The mice were divided into four groups (two control and two experimental groups) of 10 animals (males or females) per group. Mice of the experimental groups were injected subcutaneously at the base of a tail with Az solution (0.15 mg/kg) emulsified in Freund’s complete adjuvant in a ratio of 1:1 (2 mL/kg). Similarly, the mice in the control groups were administered with a suspension of normal saline in Freund’s complete adjuvant. Five days later all animals received an injection of Az (0.15 mg/kg, 1.33 mL/kg) in the pad of the left hind paw. To estimate the intensity of the studied allergic reaction, 6, 12 and 24 h after the second Az injection the thickness of the left and right hind mouse paws was measured with a digital caliper.

male ICR mice = format: in vivo, mouse; conditions: 7-day im 0.15 and 0.5 mg/kg
Protocol: as §1
On the last 7th day of the Az administration, the mice of the first group (30 animals) were immunized with a solution of trinitrobenzenesulfonic acid (TNBS) (200 μL, 10 mM) subcutaneously at the base of a tail. After 6 days the animals were secondarily immunized with TNBS (50 μL, 10 mM) injected in the pad of the left hind paw, the same volume of normal saline was injected into the right hind paw. 24 h after the second immunization, the animals were euthanized (CO2 inhalation) and the weights of their experimental and control paws were determined. The reaction index was calculated using the indicated formula: Ri=Wexp−Wcont/Wexp×100% Ri—reaction index, Wexp—weight of the experimental paw, Wcont—weight of the control paw.

human α7 nAChR = conditions: cited from earlier work
[3] = target: T1, human neuronal homopentameric α7 nAChR (Homo sapiens, UniProt P36544); experiment: Calcium imaging of ACh-evoked [Ca2+]i rise in Neuro2a cells expressing α7 nAChR; format: cell-based; conditions: 10 μM ACh (EC50); transfected Neuro2a cells, PNU120596 10 μM; 15 min preincubation; mean ± SEM, 4 independent experiments; read-out: IC50, inhibition of ACh-evoked calcium response of α7 nAChR
T1 construct: expressed in transfected cells; host or cells: mouse neuroblastoma Neuro2a, transient transfection (α7 nAChR-pCEP4) with human Ric-3 (Ric3-pCMV6-XL5, OriGene)
T1 sequence (P36544 23-502): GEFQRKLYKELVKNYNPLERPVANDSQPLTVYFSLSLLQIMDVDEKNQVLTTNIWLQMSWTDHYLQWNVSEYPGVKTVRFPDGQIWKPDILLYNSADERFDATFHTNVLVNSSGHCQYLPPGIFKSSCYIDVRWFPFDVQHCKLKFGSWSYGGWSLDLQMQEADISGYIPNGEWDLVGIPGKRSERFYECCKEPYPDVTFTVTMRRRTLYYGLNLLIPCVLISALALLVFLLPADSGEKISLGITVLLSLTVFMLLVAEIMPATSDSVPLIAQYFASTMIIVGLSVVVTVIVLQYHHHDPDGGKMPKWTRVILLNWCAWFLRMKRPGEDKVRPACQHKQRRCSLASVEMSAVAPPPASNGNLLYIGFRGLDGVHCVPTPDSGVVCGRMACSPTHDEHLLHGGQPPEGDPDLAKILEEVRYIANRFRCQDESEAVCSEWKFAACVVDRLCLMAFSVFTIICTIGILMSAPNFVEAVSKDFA
Protocol: Mouse neuroblastoma Neuro2a cells were purchased from the Russian collection of cell cultures (Institute of Cytology, Russian Academy of Sciences, Saint Petersburg, Russia). Cells were cultured in DMEM (Paneco, Moscow, Russia) supplemented with 10% FBS. They were sub-cultured the day before transfection and were plated at a density of 10,000 cells per well in a 96-well black plate. On the next day Neuro2a cells were transiently transfected with plasmids coding mouse muscle α1β1δε nAChR (pRBG4-vector) and a fluorescent calcium sensor Case12 (pCase12-cyto vector, Evrogen, Moscow, Russia) in a molar ratio of 2:1 following a lipofectamine transfection protocol (ThermoFisher Scientific, Waltham, MA, USA). […]
The plates were transferred to the multimodal microplate reader Hidex Sence (Hidex, Turku, Finland) where the cells were excited by light of 485 nm wavelength and emitted fluorescence was detected at 535 ± 10 nm. Fluorescence was recorded every 2 s for three minutes following agonist addition. Responses were measured as peak intensity minus basal fluorescence level and were expressed as a percentage of the maximal response obtained to agonist. Data files were analyzed using Hidex Sence software (Hidex, Turku, Finland) and OriginPro 7.5 software (OriginLab, Northampton, MA, USA, for statistical analysis).

For “DNWWPKPPHQGPRPPRPRPKP-NH2 [Az, azemiopsin]”, the “activity against GABAA receptors” value [1] is listed as “no activity”, the “phagocytic activity (engulfing ink particles) of peritoneal macrophages” value [2] is listed as “did not significantly change” and the “allergic effect in the delayed-type hypersensitivity reaction test” value (male and female ICR mice) is listed as “no allergic effect”. For the same substance, the “degree of paw edema in delayed-type hypersensitivity to TNBS (cellular immunity)” value (male ICR mice) was “did not cause any significant changes”, the IC50 (human α7 nAChR) was 22 ± 2 µM and the IC50 [3] was 2.67 µM and ~3 µM.
